Results on 13 compounds are retold here after ChEMBL document CHEMBL1201862, “PubChem BioAssay data set” (2004).

What all share (experiment): NCI tumour cell line growth inhibition, 48 h
For experiment [1], the system named is KM12.
Experiment [2] relates to RXF 393.
Experiment [3] concerns BT-549.
For experiment [4], the system named is 786-0.
The subject of experiment [5] is SR.
The test system of experiment [6] is A549.
Experiment [7] relates to HT-29.
Experiment [8] relates to PC-3.
Experiment [9] has as its system OVCAR-5.
Experiment [10] has as its system Malme-3M.
For experiment [11], the system named is CCRF-CEM.
The subject of experiment [12] is UACC-257.
The test system of experiment [13] is UACC-62.
Experiment [14] concerns HCT-116.
Experiment [15] has as its system RPMI-8226.
The test system of experiment [16] is OVCAR-3.
Experiment [17] has as its system SK-MEL-5.
Experiment [18] deals with Hs-578T.

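Protocol summary: plate cells (96-well), add compound at 5 concentrations, incubate 48 h, interpolate endpoints linearly. GI50 is the concentration that inhibits growth by half.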 Active and inactive are the calls of the source. Cut-off read from the data, not from the text of the source: active = GI50 up to about 1.1 µM and inactive = higher.

As to `O=C(O)c1ccccc1C1c2ccccc2Oc2ccccc21`, the GI50 is 62.2 µM (inactive) in experiment [1]; 69.5 µM (inactive) in experiment [2]; 72.3 µM (inactive) in experiment [3]; 49.5 µM (inactive) in experiment [4]; 41.9 µM (inactive) in [5]; 48.6 µM (inactive) in experiment [6]. The GI50 in [7] is 74.6 µM (inactive); in experiment [8] it was 65.9 µM (inactive); in experiment [9], > 100 µM (inactive); in experiment [10], 26.7 µM (inactive); in [11], > 100 µM (inactive); in experiment [12], > 100 µM (inactive). The GI50 in experiment [13] is 25.8 µM (inactive); in [14], 45.3 µM (inactive); in [15] it was 54.6 µM (inactive); in experiment [16], 27.9 µM (inactive); in [17] it was 41.4 µM (inactive).
Take `CC(C)CCC[C@@H](C)[C@H]1CC[C@H]2C3=C[C@H](OS(=O)(=O)O)[C@@]4(O)C[C@@H](O)CC[C@]4(C)[C@@]3(O)CC[C@]12C`: the GI50 in experiment [1] is 84.5 µM (inactive); in experiment [2], > 100 µM (inactive); in experiment [3] it was > 100 µM (inactive); in experiment [4] it was > 100 µM (inactive); in experiment [5], 68.5 µM (inactive); in experiment [6], > 100 µM (inactive). In addition, the GI50 in experiment [7] is 42 µM (inactive); in experiment [8] it was > 100 µM (inactive); in experiment [9] it was > 100 µM (inactive); in experiment [10], > 100 µM (inactive); in experiment [11], 49.2 µM (inactive); in experiment [12], > 100 µM (inactive). In addition, the GI50 in experiment [13] was > 100 µM (inactive); in experiment [14], 98.9 µM (inactive); in [15] it was > 100 µM (inactive); in experiment [16] it was > 100 µM (inactive); in experiment [17], > 100 µM (inactive).
As for `Cn1c(=O)c2c(nc(NCCCCl)n2CC(=O)NCCCCl)n(C)c1=O`, the GI50 in experiment [1], in [2], in [18], in [3], in experiment [4] and in experiment [6] was > 100 µM (inactive) in each case. For the same compound, the GI50 in experiment [7], in experiment [8], in experiment [9], in experiment [11], in experiment [12] and in experiment [13] was > 100 µM (inactive) throughout. For the same compound, the GI50 in [14], in [15], in experiment [16] and in [17] was > 100 µM (inactive) each time.
For the compound `Cn1c(SCc2ccc(F)cc2)nnc1C12CC3CC(CC(C3)C1)C2`, the GI50 in experiment [2] is 27.8 µM (inactive); in experiment [18] it was 34.8 µM (inactive); in experiment [4], 35.8 µM (inactive); in experiment [5] it was 24.2 µM (inactive); in experiment [6], 36.6 µM (inactive); in experiment [7], 16.1 µM (inactive). Also, the GI50 in experiment [8] is 28.8 µM (inactive); in [9], 63.2 µM (inactive); in [10], 19.5 µM (inactive); in experiment [11], 17.1 µM (inactive); in experiment [12], 33.2 µM (inactive); in experiment [13], 27.1 µM (inactive). The GI50 in experiment [14] was 23.3 µM (inactive); in experiment [15] it was 20.1 µM (inactive); in experiment [16], 29.4 µM (inactive); in experiment [17], 11.9 µM (inactive).
Regarding `CC(=O)OCC1OC(n2ncc(=O)[nH]c2=O)C(OC(C)=O)C1OC(C)=O` (centres undefined), the GI50 in experiment [1] was 11.3 µM (inactive); in experiment [2] it was > 100 µM (inactive); in experiment [18] it was 19.1 µM (inactive); in [4], 4.04 µM (inactive); in experiment [5], 5.36 µM (inactive); in experiment [6], 8.97 µM (inactive). In addition, the GI50 is 6.67 µM (inactive) in [7]; 68.9 µM (inactive) in experiment [8]; > 100 µM (inactive) in experiment [9]; > 100 µM (inactive) in [10]; 0.718 µM (active) in [11]; 23.2 µM (inactive) in [13]. Besides, the GI50 in [14] was 1.07 µM (active); in [15], > 100 µM (inactive); in experiment [16] it was 65.9 µM (inactive); in experiment [17] it was 19.3 µM (inactive).
Take `COC(=O)C1=C(C(=O)OC)C(OO)(c2ccccc2)OC1=O` (centres undefined): the GI50 in experiment [1] is > 100 µM (inactive); in experiment [2], > 100 µM (inactive); in experiment [3], > 100 µM (inactive); in [4], 36.5 µM (inactive); in [5], 38.5 µM (inactive); in experiment [6], > 100 µM (inactive). Further, the GI50 in experiment [7] was 35.9 µM (inactive); in experiment [8], 38.6 µM (inactive); in [9], 40.6 µM (inactive); in experiment [10], > 100 µM (inactive); in experiment [11], 55.6 µM (inactive); in experiment [12] it was > 100 µM (inactive). In addition, the GI50 in experiment [13] is 34.2 µM (inactive); in [14], 61.7 µM (inactive); in [16] it was > 100 µM (inactive); in experiment [17] it was 50.2 µM (inactive).
On to `CC1CCC(O)(C(C)(C(=O)O)c2ccccc2)CC1` (centres undefined), for which the GI50 was > 100 µM (inactive) in experiment [1]; > 100 µM (inactive) in experiment [2]; 74 µM (inactive) in experiment [18]; > 100 µM (inactive) in [3]; > 100 µM (inactive) in experiment [4]; 42.2 µM (inactive) in experiment [6]. For the same compound, the GI50 in [7] was > 100 µM (inactive); in experiment [8], > 100 µM (inactive); in experiment [9], > 100 µM (inactive); in experiment [10] it was 63.4 µM (inactive); in experiment [11], 82.8 µM (inactive); in experiment [12] it was > 100 µM (inactive). For the same compound, the GI50 in experiment [13], in [14], in experiment [16] and in experiment [17] was > 100 µM (inactive) each time.
`CC(=O)/C(=C/NC(=S)Nc1ccccc1)C(=O)Nc1ccccc1C`: the GI50 in experiment [1], in [2], in experiment [18], in experiment [4], in experiment [5] and in experiment [6] was > 100 µM (inactive) each time. The GI50 in [7] is 77.8 µM (inactive); in experiment [8], > 100 µM (inactive); in [9], > 100 µM (inactive); in [10], > 100 µM (inactive); in [11] it was > 100 µM (inactive); in experiment [12], > 100 µM (inactive). Besides, the GI50 in experiment [13] was > 100 µM (inactive); in experiment [14] it was > 100 µM (inactive); in experiment [15] it was > 100 µM (inactive); in experiment [16], 61.1 µM (inactive); in [17] it was 61.2 µM (inactive).
Consider `COc1ccc(C2(O)C(S(=O)(=O)c3ccc(C)cc3)=Cc3ccc(OC)cc32)cc1` (centres undefined), for which the GI50 was > 100 µM (inactive) in [1]; 23.6 µM (inactive) in experiment [18]; 41 µM (inactive) in [4]; > 100 µM (inactive) in experiment [5]; > 100 µM (inactive) in [6]; > 100 µM (inactive) in [7]. Further, the GI50 in experiment [8] is 53.8 µM (inactive); in [9], > 100 µM (inactive); in [11], > 100 µM (inactive); in experiment [12], > 100 µM (inactive); in [14] it was > 100 µM (inactive); in experiment [15], > 100 µM (inactive). The GI50 in experiment [17] is > 100 µM (inactive).
For the compound `NC(=O)C(=CNC(=S)Nc1cccc(C(F)(F)F)c1)C(N)=O`, the GI50 in experiment [1], in [2], in experiment [18], in experiment [4], in experiment [5] and in experiment [6] was > 100 µM (inactive) each time. Also, the GI50 in experiment [7], in experiment [8], in [9], in experiment [11], in [12] and in experiment [13] was > 100 µM (inactive) each time. For the same compound, the GI50 in [14], in [15], in experiment [16] and in experiment [17] was > 100 µM (inactive) throughout.
For the compound `OCC1C(OCc2ccccc2)C(OCc2ccccc2)C(OCc2ccccc2)CN1Cc1ccccc1` (centres undefined), the GI50 was 16.8 µM (inactive) in [1]; 17.4 µM (inactive) in experiment [2]; 24.6 µM (inactive) in experiment [18]; 26.3 µM (inactive) in experiment [4]; 8.83 µM (inactive) in experiment [5]; 18.7 µM (inactive) in experiment [6]. For the same compound, the GI50 in experiment [7] is 9.62 µM (inactive); in experiment [8], 13 µM (inactive); in experiment [9], 37.5 µM (inactive); in experiment [10], 27.9 µM (inactive); in experiment [11], 28.8 µM (inactive); in experiment [12], 19.6 µM (inactive). Also, the GI50 in [13] is > 100 µM (inactive); in [14] it was 17.3 µM (inactive); in experiment [16] it was 47.5 µM (inactive).
In the case of `CCOC(=O)CCCN`, the GI50 in experiment [1], in [2], in [18], in experiment [3], in experiment [4] and in experiment [6] was > 100 µM (inactive) throughout. Further, the GI50 in experiment [7], in experiment [8], in experiment [9], in experiment [10], in [11] and in experiment [12] was > 100 µM (inactive) in each case. The GI50 in experiment [14], in experiment [15], in [16] and in experiment [17] was > 100 µM (inactive) each time.
For the compound `Cc1ccc2c(O)cc(-c3ccc4ccccc4c3)nc2n1`, the GI50 is 3.21 µM (inactive) in experiment [1]; 3.1 µM (inactive) in experiment [18]; 27.4 µM (inactive) in experiment [3]; 3.94 µM (inactive) in experiment [4]; 1.83 µM (inactive) in [5]; 7.89 µM (inactive) in experiment [6]. Moreover, the GI50 is 3.75 µM (inactive) in experiment [7]; 19.3 µM (inactive) in [9]; 4.46 µM (inactive) in experiment [10]; 3.66 µM (inactive) in experiment [11]; 5.58 µM (inactive) in experiment [12]; 3.64 µM (inactive) in experiment [13]. In addition, the GI50 in experiment [15] was 4.48 µM (inactive).
